Reference: PubChem BioAssay AID190 (DTP/NCI, 2004)
“And” between values parts separate entries of the source, which are not always exact repeats. Identical values can stand only once. Inconclusive results and toxic doses are left out.

Tested on: AKR/Lw mice, AKR lymphoma ip, median survival T/C
Experiment: NCI In Vivo Anticancer Drug Screen. Data for tumor model Lymphoma AKR (Transplanted) (intraperitoneal) in AKR/Lw mice
Settings: endpoint: median survival time, higher = longer survival
Method: The antitumor activity of compounds was measured in mice bearing transplantable tumors. Survival or tumor size were measured and the results are expressed as the measurement made in the treated group (T) divided by the measurement made in the vehicle treated control group (C). The tumor model used in this assay is Lymphoma AKR (Transplanted) (intraperitoneal) in AKR/Lw mice

[1] = dose: 100.0 mg/kg/injection, schedule: Q01DX001 (ip), vehicle: Klucel (hydroxypropylcellulose) (HPC)
[2] = dose: 200.0 mg/kg/injection, schedule: Q01DX001 (ip), vehicle: Klucel (hydroxypropylcellulose) (HPC)
[3] = dose: 400.0 mg/kg/injection, schedule: Q01DX001 (ip), vehicle: Klucel (hydroxypropylcellulose) (HPC)

For `O=NN(CCCl)C(=O)NCCCl`, the T/C (dose: 0.12 mg/kg/injection, schedule: Q01DX009 (ip), vehicle: saline) was 105 % of control, the T/C (dose: 0.25 mg/kg/injection, schedule: Q01DX009 (ip), vehicle: saline) was 87 % of control and 107 % of control and the T/C (dose: 0.25 mg/kg/injection, schedule: Q04DX003 (ip), vehicle: saline) was 90 % of control and 97 % of control. For the same compound, the T/C (dose: 0.5 mg/kg/injection, schedule: Q04DX004 (ip), vehicle: saline) was 96 % of control, the T/C (dose: 1.0 mg/kg/injection, schedule: Q04DX004 (ip), vehicle: saline) was 108 % of control and 112 % of control and the T/C (dose: 1.5 mg/kg/injection, schedule: Q04DX003 (ip), vehicle: saline) was 107 % of control. The T/C (dose: 1.5 mg/kg/injection, schedule: Q07DX003 (ip), vehicle: saline) was 87 % of control and 118 % of control, the T/C (dose: 2.5 mg/kg/injection, schedule: Q04DX003 (ip), vehicle: saline) was 93 % of control and the T/C (dose: 3.0 mg/kg/injection, schedule: Q01DX001 (ip), vehicle: saline) was 100 % of control and 114 % of control. For the same compound, the T/C (dose: 3.0 mg/kg/injection, schedule: Q01DX009 (ip), vehicle: saline) was 87 % of control, the T/C (dose: 3.0 mg/kg/injection, schedule: Q04DX003 (ip), vehicle: saline) was 86 % of control and the T/C (dose: 3.0 mg/kg/injection, schedule: Q07DX003 (ip), vehicle: saline) was 109 % of control and 121 % of control. The T/C (dose: 3.13 mg/kg/injection, schedule: Q04DX003 (ip), vehicle: water) was 98 % of control, the T/C (dose: 3.75 mg/kg/injection, schedule: Q01DX001 (ip), vehicle: saline) was 117 % of control and the T/C (dose: 4.0 mg/kg/injection, schedule: Q04DX004 (ip), vehicle: saline) was 153 % of control. The T/C (dose: 5.0 mg/kg/injection, schedule: Q01DX001 (ip), vehicle: saline) was 93 % of control and 100 % of control and 103 % of control, the T/C (dose: 5.0 mg/kg/injection, schedule: Q01DX009 (ip), vehicle: saline) was 333 % of control and the T/C (dose: 5.0 mg/kg/injection, schedule: Q04DX003 (ip), vehicle: saline) was 103 % of control. The T/C (dose: 5.0 mg/kg/injection, schedule: Q10DX004 (ip), vehicle: saline) was 103 % of control, the T/C (dose: 6.0 mg/kg/injection, schedule: Q04DX003 (ip), vehicle: saline) was 97 % of control and the T/C (dose: 6.0 mg/kg/injection, schedule: Q07DX003 (ip), vehicle: saline) was 100 % of control and 118 % of control. The T/C (dose: 6.2 mg/kg/injection, schedule: Q01DX001 (ip), vehicle: saline) was 106 % of control, the T/C (dose: 6.25 mg/kg/injection, schedule: Q04DX003 (ip), vehicle: water) was 124 % of control and the T/C (dose: 7.5 mg/kg/injection, schedule: Q01DX001 (ip), vehicle: saline) was 118 % of control. The T/C (dose: 8.0 mg/kg/injection, schedule: Q04DX004 (ip), vehicle: saline) was 171 % of control, the T/C (dose: 10.0 mg/kg/injection, schedule: Q01DX009 (ip), vehicle: saline) was 97 % of control and the T/C (dose: 10.0 mg/kg/injection, schedule: Q04DX003 (ip), vehicle: saline) was 106 % of control. For the same compound, the T/C (dose: 10.0 mg/kg/injection, schedule: Q10DX004 (ip), vehicle: saline) was 111 % of control, the T/C (dose: 10.0 mg/kg/injection, schedule: Q14DX003 (ip), vehicle: saline) was 123 % of control and the T/C (dose: 12.5 mg/kg/injection, schedule: Q01DX001 (ip), vehicle: saline) was 118 % of control. For the same compound, the T/C (dose: 12.5 mg/kg/injection, schedule: Q04DX003 (ip), vehicle: water) was 88 % of control, the T/C (dose: 15.0 mg/kg/injection, schedule: Q10DX004 (ip), vehicle: saline) was 113 % of control and the T/C (dose: 15.0 mg/kg/injection, schedule: Q14DX003 (ip), vehicle: saline) was 98 % of control. The T/C (dose: 16.0 mg/kg/injection, schedule: Q01DX009 (ip), vehicle: saline) was 97 % of control, the T/C (dose: 16.0 mg/kg/injection, schedule: Q04DX004 (ip), vehicle: saline) was 168 % of control and the T/C (dose: 20.0 mg/kg/injection, schedule: Q01DX009 (ip), vehicle: saline) was 97 % of control. For the same compound, the T/C (dose: 20.0 mg/kg/injection, schedule: Q10DX004 (ip), vehicle: saline) was 101 % of control, the T/C (dose: 20.0 mg/kg/injection, schedule: Q14DX003 (ip), vehicle: saline) was 115 % of control and the T/C (dose: 24.0 mg/kg/injection, schedule: Q01DX001 (ip), vehicle: saline) was 86 % of control. For the same compound, the T/C (dose: 25.0 mg/kg/injection, schedule: Q04DX003 (ip), vehicle: water) was 108 % of control, the T/C (dose: 32.0 mg/kg/injection, schedule: Q04DX004 (ip), vehicle: saline) was 103 % of control and the T/C (dose: 45.0 mg/kg/injection, schedule: Q01DX001 (ip), vehicle: saline) was 54 % of control and 95 % of control. The T/C (dose: 60.0 mg/kg/injection, schedule: Q01DX001 (ip), vehicle: saline) was 23 % of control and 86 % of control.
For `O=C(Nc1ccccc1)Oc1ccc(Cl)cc1`, the T/C [1] was 100 % of control, the T/C [2] was 100 % of control and the T/C [3] was 106 % of control.
In the case of `O=NN(CCCl)C(=O)NC1CCCCC1`, the T/C (dose: 2.0 mg/kg/injection, schedule: Q04DX003 (ip), vehicle: Klucel (hydroxypropylcellulose) (HPC)) is reported as 102 % of control, the T/C (dose: 2.5 mg/kg/injection, schedule: Q01DX001 (ip), vehicle: Klucel (hydroxypropylcellulose) (HPC)) is reported as 109 % of control and the T/C (dose: 4.4 mg/kg/injection, schedule: Q04DX003 (ip), vehicle: Klucel (hydroxypropylcellulose) (HPC)) is reported as 106 % of control. The T/C (dose: 5.0 mg/kg/injection, schedule: Q01DX001 (ip), vehicle: Klucel (hydroxypropylcellulose) (HPC)) was 111 % of control, the T/C (dose: 5.0 mg/kg/injection, schedule: Q04DX004 (ip), vehicle: Klucel (hydroxypropylcellulose) (HPC)) was 100 % of control and the T/C (dose: 6.25 mg/kg/injection, schedule: Q07DX003 (ip), vehicle: saline) was 109 % of control. For the same compound, the T/C (dose: 6.7 mg/kg/injection, schedule: Q04DX003 (ip), vehicle: Klucel (hydroxypropylcellulose) (HPC)) was 122 % of control, the T/C (dose: 7.0 mg/kg/injection, schedule: Q01DX001 (ip), vehicle: Klucel (hydroxypropylcellulose) (HPC)) was 165 % of control and the T/C (dose: 10.0 mg/kg/injection, schedule: Q04DX003 (ip), vehicle: Klucel (hydroxypropylcellulose) (HPC)) was 115 % of control. For the same compound, the T/C (dose: 10.0 mg/kg/injection, schedule: Q04DX004 (ip), vehicle: Klucel (hydroxypropylcellulose) (HPC)) was 100 % of control, the T/C (dose: 12.5 mg/kg/injection, schedule: Q07DX003 (ip), vehicle: saline) was 96 % of control and 115 % of control and 118 % of control and the T/C (dose: 25.0 mg/kg/injection, schedule: Q01DX001 (ip), vehicle: saline with Tween-80) was 159 % of control. For the same compound, the T/C (dose: 25.0 mg/kg/injection, schedule: Q01DX001 (ip), vehicle: saline) was 106 % of control and 115 % of control, the T/C (dose: 25.0 mg/kg/injection, schedule: Q07DX003 (ip), vehicle: saline) was 106 % of control and 109 % of control and the T/C (dose: 50.0 mg/kg/injection, schedule: Q01DX001 (ip), vehicle: saline with Tween-80) was 365 % of control. The T/C (dose: 50.0 mg/kg/injection, schedule: Q01DX001 (ip), vehicle: saline) was 115 % of control and the T/C (dose: 100.0 mg/kg/injection, schedule: Q01DX001 (ip), vehicle: saline with Tween-80) was 218 % of control.
For `CCCCCCCC(=O)NCCCC`, the T/C [1] was 96 % of control, the T/C [2] was 96 % of control and the T/C [3] was 92 % of control.
In the case of `O=C1CCSCCN1`, the T/C (dose: 100.0 mg/kg/injection, schedule: Q01DX001 (ip), vehicle: saline) is reported as 95 % of control and the T/C (dose: 200.0 mg/kg/injection, schedule: Q01DX001 (ip), vehicle: saline) is reported as 86 % of control.
`COc1ccc2c3c(ccc2c1)C(=O)C(C)(C#N)CC3` (stereo not given) was tested, and the T/C (dose: 37.5 mg/kg/injection, schedule: Q01DX001 (ip), vehicle: Klucel (hydroxypropylcellulose) (HPC)) was 92 % of control, the T/C (dose: 75.0 mg/kg/injection, schedule: Q01DX001 (ip), vehicle: Klucel (hydroxypropylcellulose) (HPC)) was 94 % of control and the T/C (dose: 150.0 mg/kg/injection, schedule: Q01DX001 (ip), vehicle: Klucel (hydroxypropylcellulose) (HPC)) was 100 % of control. The T/C (dose: 300.0 mg/kg/injection, schedule: Q01DX001 (ip), vehicle: Klucel (hydroxypropylcellulose) (HPC)) was 107 % of control.
With `C1CCN2CC3CC(CN4CCCCC34)C2C1` (stereo not given) the T/C (dose: 10.0 mg/kg/injection, schedule: Q01DX001 (ip), vehicle: saline) was 100 % of control, the T/C (dose: 20.0 mg/kg/injection, schedule: Q01DX001 (ip), vehicle: saline) was 100 % of control and the T/C (dose: 40.0 mg/kg/injection, schedule: Q01DX001 (ip), vehicle: saline) was 100 % of control.
